The values below come from ChEMBL document CHEMBL3044921, “Synthesis, characterization, and SAR studies of new (1H-indol-3-yl)alkyl-3-(1H-indol-3-yl)propanamide derivatives as possible antimicrobial and antitubercular agents” (2013).

This experiment concerns Mycobacterium tuberculosis. The experiment can be described thus: Antitubercular activity against multidrug-resistant Mycobacterium tuberculosis assessed as growth inhibition at 0.3125 to 5 ug/mL after 7 days by resazurin reduction test. The experiment is classed as functional. The conditions noted are these: 168 h.

Each structure is given as a SMILES string. In brackets after ≈: the same amount, converted by molar mass. Where only a bound is given, the exact number is not on record here.

A word on the MIC: it is the lowest concentration found to suppress growth. On to `CO[C@H]1/C=C/O[C@@]2(C)Oc3c(C)c(O)c4c(O)c(c(/C=N/N5CCN(C)CC5)c(O)c4c3C2=O)NC(=O)/C(C)=C\C=C\[C@H](C)[C@H](O)[C@@H](C)[C@@H](O)[C@@H](C)[C@H](OC(C)=O)[C@@H]1C` [RIFAMPIN], for which the MIC is 25 µg/mL (≈ 30.4 µM). As for `Cn1cc(CCC(=O)NCc2c[nH]c3ccc(OC(F)(F)F)cc23)c2cc(Cl)ccc21`, the figure is 6.25 µg/mL (≈ 13.9 µM). `Cn1cc(CCC(=O)NCCCc2c[nH]c3ccc(Cl)cc23)c2cc(Cl)ccc21`: the minimal inhibitory concentration (MIC) was 2.5 µg/mL (≈ 5.84 µM). The value for `Cn1cc(CCCNC(=O)CCc2c[nH]c3ccc(Cl)cc23)c2cc(OC(F)(F)F)ccc21` was 12.5 µg/mL (≈ 26.2 µM); that for `Cc1[nH]c2ccc(OC(F)(F)F)cc2c1CNC(=O)CCc1c[nH]c2ccc(Cl)cc12` was 6.25 µg/mL (≈ 13.9 µM). As for `Cn1cc(CCCNC(=O)CCc2cn(C)c3ccc(Cl)cc23)c2cc(Cl)ccc21`, the MIC stood at 25 µg/mL (≈ 56.5 µM). Take `Cn1cc(CNC(=O)CCc2c[nH]c3ccc(Cl)cc23)c2cc(Cl)ccc21`: the MIC was above 50 µg/mL. Consider `Cc1c(CNC(=O)CCc2cn(C)c3ccc(Cl)cc23)c2cc(OC(F)(F)F)ccc2n1C`, for which the MIC is above 50 µg/mL. The value for `O=C(CCc1c[nH]c2ccc(Cl)cc12)NCc1c[nH]c2ccc(Cl)cc12` was 6.25 µg/mL (≈ 16.2 µM). On to `NNC(=O)c1ccncc1` [ISONIAZID], for which the MIC is 12.5 µg/mL (≈ 91.1 µM). As for `Cc1c(CCCNC(=O)CCc2c[nH]c3ccc(Cl)cc23)c2cc(OC(F)(F)F)ccc2n1C`, the figure is above 50 µg/mL. On to `Cn1cc(CCC(=O)NCCCc2c[nH]c3ccc(OC(F)(F)F)cc23)c2cc(Cl)ccc21`, for which the MIC worked out at 6.25 µg/mL (≈ 13.1 µM).

As to `Cc1[nH]c2ccc(OC(F)(F)F)cc2c1CCCNC(=O)CCc1c[nH]c2ccc(Cl)cc12`, the minimal inhibitory concentration (MIC) is above 50 µg/mL. As for `Cn1cc(CCC(=O)NCc2c[nH]c3ccc(Cl)cc23)c2cc(Cl)ccc21`, the figure is 6.25 µg/mL (≈ 15.6 µM). As to `Cn1cc(CCC(=O)NCc2cn(C)c3ccc(Cl)cc23)c2cc(Cl)ccc21`, the MIC is above 50 µg/mL. The value for `Cc1c(CNC(=O)CCc2c[nH]c3ccc(Cl)cc23)c2cc(OC(F)(F)F)ccc2n1C` was above 50 µg/mL; that for `O=C(CCc1c[nH]c2ccc(Cl)cc12)NCc1c[nH]c2ccc(OC(F)(F)F)cc12` was above 50 µg/mL; that for `Cc1c(CCCNC(=O)CCc2cn(C)c3ccc(Cl)cc23)c2cc(OC(F)(F)F)ccc2n1C` was 1.25 µg/mL (≈ 2.47 µM). As for `Cc1[nH]c2ccc(OC(F)(F)F)cc2c1CNC(=O)CCc1cn(C)c2ccc(Cl)cc12`, the figure is above 50 µg/mL.
